Patent US10618914B2 (UNIVERSITY OF PITTSBURGH—OF THE COMMONWEALTH SYSTEM OF …, priority 2015, dated 2020)
Read-outs that look alike come from different tables or passages of the source.

Legend:
Assay type in all cases: cell-based
STAT3 = assay: HCS STAT3 assay; conditions: read-out: STAT3 IC50 (converted)
[1] = tested on: HNSCC cell lines 686LN, FADU, CAL33, OSC19; assay: Growth inhibition on HNSCC cell line panel; conditions: range over cell lines 686LN
STAT1 = STAT1 assay (selectivity counter-screen)
686LN = assay: Growth inhibition on HNSCC cell line 686LN; conditions: average of 2 experiments
FADU = assay: Growth inhibition on HNSCC cell line FADU; conditions: average of 2 experiments
OSC19 = assay: Growth inhibition on HNSCC cell line OSC19; conditions: average of 2 experiments; read-out: 0SC19 GI50
Cal33 cells = assay: Cal33 growth inhibition
[2] = Table 6, average of 2 experiments
[3] = Table 5, * average of 2 experiments

SMILES | IC50 (STAT3; [3]) | IC50 (STAT1; [3]) | GI50 (Cal33 cells; [3]) | further results
Clc1ccc(C2=Nn3c(nnc3-c3cc(-c4ccccc4)n[nH]3)SC2)cc1 [2b] |  |  |  | IC50 (STAT3; Table 4): 9.6 µM; GI50 [1]: 27 to 44 µM; IC50 (STAT1; Table 4): > 50 µM
COc1ccc(C2=Nn3c(nnc3-c3cc(-c4ccc(Cl)cc4)n[nH]3)SC2C)cc1 (centres unmarked) [compound 24] |  |  |  | GI50 (686LN): 17.4 µM; GI50 (FADU): 8.4 µM; GI50 (OSC19): 14.9 µM; GI50 (Cal33 cells; [2]): 2.2 µM
CC1Sc2nnc(-c3cc(-c4ccc(F)cc4)n[nH]3)n2N=C1c1ccccc1 (centres unmarked) [Cmpd 22] | 3.8 ± 0.8 µM | > 30 µM | 36.3 ± 9.7 µM | 
CC1Sc2nnc(-c3cc(-c4ccccc4)n[nH]3)n2N=C1c1ccccc1 (centres unmarked) [Cmpd 21] | 3.4 µM | 15 µM | 34.1 ± 8.7 µM | 
CCC(C)C1Sc2nnc(-c3[nH]nc4c3CCC4)n2N=C1c1ccc(OC)cc1 (centres unmarked) [Cmpd 27] | 4.1 µM | > 50 µM | 3.5 ± 1.5 µM | 
CC1(C)Sc2nnc(-c3[nH]nc4c3CCC4)n2N=C1c1ccc(Cl)c(Cl)c1 [Cmpd 32] | 18.6 µM | > 50 µM | > 50 µM | 
CC1Sc2nnc(-c3[nH]nc4c3CCC4)n2N=C1c1ccc(Cl)c(Cl)c1 (centres unmarked) [Cmpd 19] | 8.2 ± 2.2 µM | > 50 µM | 1.9 ± 1.2 µM | 
COc1ccc(C2=Nn3c(nnc3-c3[nH]nc4c3CCC4)SC2C)cc1 (centres unmarked) [Cmpd 20] | 9.1 µM | > 50 µM | 0.2 µM | 
COc1ccc(C2=Nn3c(nnc3-c3[nH]nc4c3CCC4)SC2C)cc1 (centres unmarked) [compound 20] |  |  |  | GI50 (686LN): 0.88 µM; GI50 (FADU): 1.3 µM; GI50 (OSC19): 3.1 µM; GI50 (Cal33 cells; [2]): 0.18 µM
Clc1ccc(C2=Nn3c(nnc3-c3[nH]nc4c3CCC4)SC2)cc1Cl [1a] |  |  |  | IC50 (STAT3; Table 4): 6.8 ± 3.7 µM; GI50 [1]: 14 to 26 µM; IC50 (STAT1; Table 4): > 50 µM
